Measurements from US20230104671A1, “METHODS AND COMPOSITIONS FOR TREATING CARDIOMYOPATHY AND HEART FAILURE” (Ann and Robert H. Lurie Children's Hospital of Chicago, priority 2021, published 2023).

Tested on: Egln1^Tie2Cre mice
Assay: C76 treatment of Egln1Tie2Cre mice: LV hypertrophy and cardiac fibrosis
Format: in vivo
Settings: 3 week-old Egln1^Tie2Cre mice treated for 11 weeks
Procedure: Egln1^Tie2Cre mice, Egln1/Hif1a^Tie2Cre and Egln1/Hif2a^Tie2Cre double knockout mice were generated as described previously^16. Egln1^EndoCreERT2 mice were generated by crossing Egln1 floxed mice with EndoSCL-CreERT2 transgenic mice expressing the tamoxifen-inducible Cre recombinase under the control of the 5′ endothelial enhancer of the stem cell leukemia locus^23. At 8 weeks of age, Egln1^EndoCreERT2 and Egln1^f/f mice were treated with 2 mg tamoxifen intraperitoneally for 5 days to induced Egln1 deletion only in ECs. Mice were scarified at the age of ˜9 months. Both male and female mice were used in these studies. The use of animals was in compliance with the guidelines of the Animal Care and Use Committee of the Northwestern University and of the University of Arizona.
For Wheat Germ Agglutinin (WGA) staining, WGA conjugated with FITC or WGA conjugated with Alexa 647 were stained with cryosectioned slides at room temple for 10 mins.
For histological assessment, hearts were harvested and washed with PBS, followed by fixation in 4% formalin and dehydrated in 70% ethanol. After paraffin processing, the tissues were cut into semi-thin […] thick sections. Sections were stained with H & E staining or Masson's trichrome kit as a service of charge at Core Facility.
To assess the therapeutic potential of HIF-2α inhibition for cardiomyopathy, we treated 3 week-old Egln1^Tie2Cre mice with the HIF-2α translation inhibitor C76^31,35 for 11 weeks.

## COC(=O)c1sccc1N/N=C(\C#N)S(C)(=O)=O [C76, methyl 3-[(2E)-2-[cyano(methylsulfonyl)methylidene]hydrazinyl]thiophene-2-carboxylate]
FIGS. 10B and 10C
  cardiomyocyte surface area assessed by WGA staining: significantly attenuated
FIGS. 10D and 10E
  perivascular fibrosis by trichrome staining: significantly attenuated
Compared to vehicle treatment, cardiac dissection (FIG. 10A)
  LV/BW ratio (LV hypertrophy): decreased
